pIC50: −log10 of the molar value. One block for each compound: values may come before it.
Assays:
PfArfGAP1 = molecular target: T1, PfArfGAP1 (Plasmodium falciparum, UniProt Q8I4Y5); assay: plate-based GST-GGA3 GAT binding GAP assay; confirmed by tryptophan fluorescence; assay type: biochemical
T1 construct: gene PF3D7_1244600; GAP domain, amino acids 1–161; with PfArf1 (NΔ17, GTP-loaded)

[1] = molecular target: ^NΔ17PfArf1 (His-tagged P. falciparum Arf1 minus the N-terminal 17 amino acids) (Plasmodium falciparum) (UniProt Q7KQL3)
ARNO = molecular target: T2, ARNO (Homo sapiens, UniProt Q99418); assay: plate-based GST-GGA3 GAT binding nucleotide exchange assay, […] compound; assay type: biochemical
T2 construct: gene CYTH2; Sec7 domain, amino acids 51–253; with Arf1 (NΔ17HsArf1 or NΔ17PfArf1, GDP-loaded)

pIC50 (PfArfGAP1): 5.33
Compound: CC1(C(=O)Nc2cccc3cccnc23)CCN1C(=O)CCC1CCCC1 (stereo not drawn) [Chem1099]

half-maximal GAP activity (EC50): deactivation of 1 µM ^NΔ17PfArf1-GTP by three-fold serial dilutions (0.5–0.002 µM) of the GAP domain, read by the GST-GGA3^GAT binding assay [1]: 21 nM
Compound: PfArfGAP1^GAP (putative GAP domain of P. falciparum ArfGAP1) (domain or fragment)

% inhibition at 50 μM (ARNO): 93
Compound: SecinH3
